GI50 and TGI data for six compounds are collected here from PubChem BioAssay (NCI).

Among the test systems are HCT-15 colon; HOP-62 NSCLC; HOP-92 NSCLC; HT29 colon; MCF7 breast; MDA-MB-231 breast; OVCAR-5 ovarian; RXF 393 renal; SF-295 CNS; SK-MEL-28 melanoma.
Holding throughout (test): NCI anticancer screen, dose series, 48 h

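Where inhibition never reached the appropriate level, the endpoint shown equals the highest concentration tested. Otherwise, values were interpolated linearly from a five-concentration, 48-hour dose response in 96-well plates. GI50 is the concentration that inhibits growth by half. TGI: total growth inhibition.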

As for `Cc1ccccc1NC(=O)NC(CC(N)=O)c1ccc2c(c1)nc(-c1cccc(Oc3ccc(C(C)(C)C)cc3)c1)n2CCCN1CCCCC1C` (stereo not given), the GI50 in the experiment on HCT-15 colon was 12.5 µM; with HOP-62 NSCLC it was 1.97 µM; in the experiment on HOP-92 NSCLC, 1.94 µM; in the experiment with HT29 colon, 1.95 µM; with MCF7 breast, 1.92 µM; in the experiment with MDA-MB-231 breast it was 2.34 µM. Also, the GI50 with OVCAR-5 ovarian is 5.21 µM; with RXF 393 renal, 2.91 µM; in the experiment with SF-295 CNS, 4.25 µM; in the experiment on SK-MEL-28 melanoma, 1.89 µM. Moreover, the TGI in the experiment on HCT-15 colon came out at 27.1 µM; in the experiment on HOP-62 NSCLC, 4.46 µM; in the experiment with HOP-92 NSCLC it was 7.33 µM; with HT29 colon it was 3.89 µM; in the experiment on MCF7 breast, 3.54 µM; in the experiment with MDA-MB-231 breast, 5.27 µM. Further, the TGI with OVCAR-5 ovarian amounted to 12 µM; in the experiment on RXF 393 renal, 7.13 µM; in the experiment with SF-295 CNS it was 9.57 µM; in the experiment on SK-MEL-28 melanoma, 3.51 µM.

In the case of `O=C(CC1C(=O)Nc2ccccc2S1=O)Nc1cccc(Cl)c1` (stereo not given), the TGI with HCT-15 colon is above 100 µM; in the experiment with HOP-62 NSCLC it was above 77.6 µM; in the experiment with HOP-92 NSCLC it was 53.8 µM; in the experiment on HT29 colon, above 55.1 µM; in the experiment on MCF7 breast, 29.9 µM; with MDA-MB-231 breast, 34.4 µM. The TGI was above 100 µM in the experiment on OVCAR-5 ovarian, 45.6 µM in the experiment with RXF 393 renal, above 100 µM in the experiment with SF-295 CNS and above 100 µM in the experiment on SK-MEL-28 melanoma.

As to `CCOC(=O)C(=Cc1ccccc1Br)C(=O)OCC`, the TGI was 3.71 µM with HCT-15 colon; above 100 µM with HOP-62 NSCLC; 7.57 µM in the experiment with HOP-92 NSCLC; 10.9 µM with HT29 colon; above 100 µM in the experiment with MCF7 breast; 36.9 µM in the experiment with MDA-MB-231 breast. The TGI turned out to be 62.5 µM in the experiment with OVCAR-5 ovarian, 4.97 µM in the experiment with RXF 393 renal, 8.88 µM in the experiment with SF-295 CNS and 5.82 µM with SK-MEL-28 melanoma.

With `COc1ccc(C2CC(c3cc(OC)c(OC)c(OC)c3)=NN2)cc1` (stereo not given), the GI50 was 3.48 µM in the experiment on HCT-15 colon; 28.7 µM in the experiment with HOP-62 NSCLC; 20.1 µM with HOP-92 NSCLC; 3.91 µM with HT29 colon; 2.78 µM in the experiment on MCF7 breast; 22.5 µM in the experiment with MDA-MB-231 breast. For the same compound, the GI50 was 49.3 µM with OVCAR-5 ovarian, 9.71 µM in the experiment on RXF 393 renal, 4.99 µM in the experiment with SF-295 CNS and 38.7 µM in the experiment on SK-MEL-28 melanoma. Also, the TGI in the experiment with HCT-15 colon was above 100 µM; with HOP-62 NSCLC, 99.2 µM; with HOP-92 NSCLC, above 100 µM; with HT29 colon, above 100 µM; in the experiment with MCF7 breast, 27.1 µM; in the experiment on MDA-MB-231 breast it was above 100 µM. In addition, the TGI was above 100 µM in the experiment on OVCAR-5 ovarian, 92 µM with RXF 393 renal, above 100 µM in the experiment with SF-295 CNS and above 100 µM with SK-MEL-28 melanoma.

In the case of `COc1cc(/C=C/C(=O)c2ccc(Nc3nc(Nc4ccc(F)cc4)nc(Nc4ccc(F)cc4)n3)cc2)cc(OC)c1OC`, the GI50 with HCT-15 colon is 5.53 µM; in the experiment with HOP-62 NSCLC it was 5.26 µM; in the experiment with HOP-92 NSCLC it was 2.3 µM; with HT29 colon it was 9.36 µM; in the experiment on MCF7 breast, 5.26 µM; in the experiment on MDA-MB-231 breast it was 15.8 µM. For the same compound, the GI50 in the experiment with OVCAR-5 ovarian was 20.5 µM; in the experiment with RXF 393 renal it was 2.74 µM; in the experiment on SF-295 CNS, 28.8 µM; with SK-MEL-28 melanoma, 26.7 µM. Further, the TGI with HCT-15 colon was above 100 µM; with HOP-62 NSCLC it was above 100 µM; with HOP-92 NSCLC, 42.6 µM; in the experiment on HT29 colon, above 100 µM; with MCF7 breast it was above 100 µM; in the experiment with MDA-MB-231 breast, above 100 µM. Also, the TGI is above 100 µM with OVCAR-5 ovarian, 7.49 µM in the experiment on RXF 393 renal, above 100 µM with SF-295 CNS and above 100 µM in the experiment on SK-MEL-28 melanoma.

`CC(=O)Nc1ccc(C(=O)N[C@@H]2C(=O)N3[C@@H]2SC(C)(C)[C@@H]3C(=O)O)cn1`: the TGI in the experiment with HCT-15 colon, in the experiment with HOP-62 NSCLC, in the experiment on HOP-92 NSCLC, with HT29 colon, in the experiment on MCF7 breast and in the experiment with MDA-MB-231 breast was above 100 µM in each case. The TGI with OVCAR-5 ovarian, in the experiment on RXF 393 renal, in the experiment with SF-295 CNS and in the experiment with SK-MEL-28 melanoma was above 100 µM throughout.
